Laboratory results as given in patent US11596622B2, “Mazindol treatment for heroin dependence and substance use disorder” (NLS Pharmaceutics AG, priority 2017, dated 2023).

Key:
5-HT1A(h) = target: T1, 5-HT1A(h) (Homo sapiens, UniProt P08908); assay: Radioligand binding, 5-HT1A (Eurofins CEREP); details: 1.0 × 10^−05 M; agonist radioligand; read-out: percent inhibition of the binding of a radioactively labeled ligand
T1 construct: Eurofins CEREP
T1 sequence (P08908 1-422): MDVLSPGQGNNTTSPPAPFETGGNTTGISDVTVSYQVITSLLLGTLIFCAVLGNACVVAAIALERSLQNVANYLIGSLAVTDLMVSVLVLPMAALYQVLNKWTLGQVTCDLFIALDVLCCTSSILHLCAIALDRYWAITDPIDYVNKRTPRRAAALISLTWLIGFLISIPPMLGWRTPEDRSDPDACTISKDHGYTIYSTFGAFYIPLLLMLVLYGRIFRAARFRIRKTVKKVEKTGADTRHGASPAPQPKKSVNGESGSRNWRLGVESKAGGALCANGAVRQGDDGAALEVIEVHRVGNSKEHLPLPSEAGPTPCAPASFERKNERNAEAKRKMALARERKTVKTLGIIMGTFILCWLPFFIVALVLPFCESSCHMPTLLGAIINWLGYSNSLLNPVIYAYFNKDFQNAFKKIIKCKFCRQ
Source text: (§1) Table A discloses mazindol and Met tested at […] and the compound binding calculated as a percent inhibition of the binding of a radioactively labeled ligand specific for each target (Eurofins CEREP, France).
(§2) An inhibition or stimulation of more than 50% is considered a significant effect of the test compounds. Fifty percent is a common cut-off for further investigation (i.e. determination of IC50 or EC50 values from concentration-response curves).
(§3) The results are expressed as a percent of control specific binding obtained in the presence of the test compounds:
(§4) [formula] and as a percent inhibition of control specific binding obtained in the presence of the test compounds: […]

M1(h) = target: T2, M1(h) (Homo sapiens, UniProt P11229); assay: Radioligand binding, M1 (Eurofins CEREP); details: 1.0 × 10^−05 M; antagonist radioligand; read-out: percent inhibition of the binding of a radioactively labeled ligand
T2 construct: Eurofins CEREP
T2 sequence (P11229 1-460): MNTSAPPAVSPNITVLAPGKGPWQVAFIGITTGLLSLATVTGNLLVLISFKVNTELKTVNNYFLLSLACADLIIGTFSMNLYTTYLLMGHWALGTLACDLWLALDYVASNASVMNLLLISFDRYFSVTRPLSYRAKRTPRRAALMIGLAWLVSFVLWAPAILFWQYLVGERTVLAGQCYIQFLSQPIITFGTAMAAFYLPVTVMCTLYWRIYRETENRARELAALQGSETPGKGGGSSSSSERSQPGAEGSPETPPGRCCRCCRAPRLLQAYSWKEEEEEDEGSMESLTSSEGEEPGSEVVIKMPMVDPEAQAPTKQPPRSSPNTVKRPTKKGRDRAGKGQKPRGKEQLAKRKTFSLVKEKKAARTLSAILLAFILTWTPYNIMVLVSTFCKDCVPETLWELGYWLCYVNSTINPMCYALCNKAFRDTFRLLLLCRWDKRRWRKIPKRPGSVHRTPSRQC
Source text: as §1
as §2, with “curves). Tables B and C display the binding profiles for Mazindol and Met.” for “curves).”
as §3, §4

[1] = animal toxicology studies; cited from earlier work
[2] = Nakashima et al., 2004; cited from earlier work

With `OC1(c2ccc(Cl)cc2)c2ccccc2C2=NCCN21` (stereo not shown) [Mazindol, 5-(4-chlorophenyl)-2,5-dihydro-3 H-imadazo[2,1-a]isoindol-5-ol] as the compound, how does the inhibition at 10 µM (5-HT1A(h)) read?
The inhibition at 10 µM was 89.5%.

What about the inhibition at 10 µM (M1(h)) of the same compound?
Its inhibition at 10 µM is 52.1%.

And the carcinogenic effect [1]?
The carcinogenic effect was “no carcinogenic effect”.

And the mutagenic effect [1]?
The mutagenic effect was “no mutagenic effect”.

And the toxic potential [1]?
The toxic potential was “very low”.

What about the “toxicology effect in reproduction” value [1] of the same compound?
Its value is “no toxicology effect in reproduction”.

And the “stability (hydrolysis to Met)” value [2]?
The value was “hydrolysis of mazindol at moderate temperatures in neutral and alkaline aqueous solutions”.
